Patent publication US11458123B2 (Arvinas, Inc., priority 2016, dated 2022)

Test system: tau protein
Test: Tau protein in vitro degradation assay (Western blot, Tau-13 antibody)
Format: cell-based, human
Conditions: SK-N-SH cells, 72 hours of incubation; for Activity* (highest amount of degradation observed at any dosage, as tau protein remaining): tested at 1000 nM, 300 nM and 100 nM; for Degradation activity* (highest amount of degradation observed at any dosage; tau protein remaining) / Degradation activity (tau protein remaining; highest amount of degradation observed at any dosage): tested at 300 nM, 100 nM, 33 nM and 11 nM, Western blot, Tau-13 antibody
How it was run: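 Tau degradation read by Tau-13 Western blot (detects all human tau forms) of SDS-PAGE-resolved lysates from SK-N-SH cells. Cells were plated at least 18 h before 72 h exposure to PROTACs at either 1000/300/100 nM or 300/100/33/11 nM.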

Compound: Cc1ncoc1-c1ccc(CNC(=O)[C@@H]2C[C@@H](O)CN2C(=O)[C@@H](NC(=O)COCCOCCOCCOCC(=O)N2CCN(c3ccn4c(n3)nc3ccccc34)CC2)C(C)(C)C)cc1 [Compound 14, (2S,4R)-1-((S)-17-(4-(benzo[4,5]imidazo[1,2-a]pyrimidin-2-yl)piperazin-1-yl)-2-(tert-butyl)-4,17-dioxo-6,9,12,15-tetraoxa-3-azaheptadecanoyl)-4-hydroxy-N-(4-(4-methyloxazol-5-yl)benzyl)pyrrolidine-2-carboxamide]
- Activity* (highest amount of degradation observed at any dosage, as tau protein remaining): C (>80% tau protein remaining after 72 hours of incubation with the test compound)

Compound: O=C1CCC(N2C(=O)c3ccc(OC4CN(CCCOCCCO[C@H]5C[C@H](Oc6ncc(-c7ccc8c(c7)[nH]c7ccncc78)cc6C(F)(F)F)C5)C4)cc3C2=O)C(=O)N1 (some centres unmarked) [Compound 101, 5-((1-(3-(3-((1r,3r)-3-((5-(5H-pyrido[4,3-b]indol-7-yl)-3-(trifluoromethyl)pyridin-2-yl)oxy)cyclobutoxy)propoxy)propyl)azetidin-3-yl)oxy)-2-(2,6-dioxopiperidin-3-yl)isoindoline-1,3-dione]
- Degradation activity* (highest amount of degradation observed at any dosage; tau protein remaining): A (≤50% tau protein remaining after 72 hours of incubation with the test compound)

Compound: Cn1c2ccncc2c2ccc(-c3ccc(C#CCOCCOCCOCCOCCOc4ccc5c(c4)C(=O)N(C4CCC(=O)NC4=O)C5=O)nc3)cc21 (centres unmarked) [Compound 71, 2-(2,6-dioxopiperidin-3-yl)-5-((15-(5-(5-methyl-5H-pyrido[4,3-b]indol-7-yl)pyridin-2-yl)-3,6,9,12-tetraoxapentadec-14-yn-1-yl)oxy)isoindoline-1,3-dione]
- Degradation activity* (highest amount of degradation observed at any dosage; tau protein remaining): A (≤50% tau protein remaining after 72 hours of incubation with the test compound)

Compound: Cn1c2ccncc2c2ccc(-c3cnc(OCCOCCOCCOCCOCCOc4ccc5c(c4)C(=O)N(C4CCC(=O)NC4=O)C5=O)c(C(F)(F)F)c3)cc21 (centres unmarked) [Compound 67, 2-(2,6-dioxopiperidin-3-yl)-5-((14-((5-(5-methyl-5H-pyrido[4,3-b]indol-7-yl)-3-(trifluoromethyl)pyridin-2-yl)oxy)-3,6,9,12-tetraoxatetradecyl)oxy)isoindoline-1,3-dione]
- Degradation activity* (highest amount of degradation observed at any dosage; tau protein remaining): A (≤50% tau protein remaining after 72 hours of incubation with the test compound)

Compound: Cn1c2ccncc2c2ccc(-c3ccc(OCCOCCOCCOCCOCCNc4cccc5c4C(=O)N(C4CCC(=O)NC4=O)C5=O)nc3)cc21 (centres unmarked) [Compound 48, 2-(2,6-dioxopiperidin-3-yl)-4-(14-(5-(5-methyl-5H-pyrido[4,3-b]indol-7-yl)pyridin-2-yloxy)-3,6,9,12-tetraoxatetradecylamino)isoindoline-1,3-dione]
- Activity* (highest amount of degradation observed at any dosage, as tau protein remaining): A (≤50% tau protein remaining after 72 hours of incubation with the test compound)

Compound: Cn1c2ccncc2c2ccc(-c3ccc(O[C@H]4C[C@@H](OCCCOCCCOC5CN(c6ccc7c(c6)C(=O)N(C6CCC(=O)NC6=O)C7=O)C5)C4)nc3)cc21 (some centres unmarked) [Compound 170, 2-(2,6-dioxopiperidin-3-yl)-5-(3-(3-(3-((1 s,3 s)-3-((5-(5-methyl-5H-pyrido[4,3-b]indol-7-yl)pyridin-2-yl)oxy)cyclobutoxy)propoxy)propoxy)azetidin-1-yl)isoindoline-1,3-dione]
- Degradation activity (tau protein remaining; highest amount of degradation observed at any dosage): A (≤50% tau protein remaining after 72 hours of incubation with the test compound)

Compound: Cc1ncsc1-c1ccc(CNC(=O)[C@@H]2C[C@@H](O)CN2C(=O)[C@H](C(C)C)N2Cc3ccccc3C2=O)c(OCCOCCOCCOc2ccc(-c3ccc4c(c3)[nH]c3ccncc34)cn2)c1 [Compound 187, (2S,4R)—N-(2-(2-(2-(2-((5-(5H-pyrido[4,3-b]indol-7-yl)pyridin-2-yl)oxy)ethoxy)ethoxy)ethoxy)-4-(4-methylthiazol-5-yl)benzyl)-4-hydroxy-1-((S)-3-methyl-2-(1-oxoisoindolin-2-yl)butanoyl)pyrrolidine-2-carboxamide]
- Degradation activity (tau protein remaining; highest amount of degradation observed at any dosage): C (>80% tau protein remaining after 72 hours of incubation with the test compound)

Compound: Cc1ncsc1-c1ccc(CNC(=O)[C@@H]2C[C@@H](O)CN2C(=O)[C@@H](NC(=O)COCCOCCOCCOCCOc2ccc3nc(-c4ccc(N(C)C)cc4)ccc3c2)C(C)(C)C)cc1 [Compound 31]
- Activity* (highest amount of degradation observed at any dosage, as tau protein remaining): C (>80% tau protein remaining after 72 hours of incubation with the test compound)

Compound: Cn1c2ccncc2c2ccc(-c3ccc(O[C@H]4C[C@H](OCCCC(F)(F)COC5CC6(C5)CN(c5ccc7c(c5)C(=O)N(C5CCC(=O)NC5=O)C7=O)C6)C4)nc3)cc21 (some centres unmarked) [Compound 197, 5-(6-((2,2-difluoro-5-((1r,3r)-3-((5-(5-methyl-5H-pyrido[4,3-b]indol-7-yl)pyridin-2-yl)oxy)cyclobutoxy)pentyl)oxy)-2-azaspiro[3.3]heptan-2-yl)-2-(2,6-dioxopiperidin-3-yl)isoindoline-1,3-dione]
- Degradation activity (tau protein remaining; highest amount of degradation observed at any dosage): C (>80% tau protein remaining after 72 hours of incubation with the test compound)

Compound: CN(C)c1ccc(-c2ccc3cc(OCCCOCCOCCOCCNc4cccc5c4C(=O)N(C4CCC(=O)NC4=O)C5=O)ccc3n2)cc1 (centres unmarked) [Compound 44, 4-(2-(2-(2-(3-(2-(4-(dimethylamino)phenyl)quinolin-6-yloxy)propoxy)ethoxy)ethoxy)ethylamino)-2-(2,6-dioxopiperidin-3-yl)isoindoline-1,3-dione]
- Activity* (highest amount of degradation observed at any dosage, as tau protein remaining): C (>80% tau protein remaining after 72 hours of incubation with the test compound)

Compound: Cn1c2ccncc2c2ccc(-c3ccc(O[C@H]4C[C@H](Oc5ccc(C#CCCCCOc6ccc7c(c6)C(=O)N(C6CCC(=O)NC6=O)C7=O)cc5)C4)nc3)cc21 (some centres unmarked) [Compound 124, 2-(2,6-dioxopiperidin-3-yl)-5-((6-(4-((1r,3r)-3-((5-(5-methyl-5H-pyrido[4,3-b]indol-7-yl)pyridin-2-yl)oxy)cyclobutoxy)phenyl)hex-5-yn-1-yl)oxy)isoindoline-1,3-dione]
- Degradation activity* (highest amount of degradation observed at any dosage; tau protein remaining): C (>80% tau protein remaining after 72 hours of incubation with the test compound)

Compound: Cn1c2ccncc2c2ccc(N3CCN(CCCOCCOCCOCCOCCOc4ccc5c(c4)C(=O)N(C4CCC(=O)NC4=O)C5=O)CC3)cc21 (centres unmarked) [Compound 210, 2-(2,6-dioxopiperidin-3-yl)-5-((15-(4-(5-methyl-5H-pyrido[4,3-b]indol-7-yl)piperazin-1-yl)-3,6,9,12-tetraoxapentadecyl)oxy)isoindoline-1,3-dione]
- Degradation activity (tau protein remaining; highest amount of degradation observed at any dosage): C (>80% tau protein remaining after 72 hours of incubation with the test compound)

Compound: Cn1c2ccncc2c2ccc(-c3ccc(O[C@H]4C[C@H](Oc5ccc(C#CCOC6CN(c7ccc8c(c7)C(=O)N(C7CCC(=O)NC7=O)C8=O)C6)nc5)C4)nc3)cc21 (some centres unmarked) [Compound 111, 2-(2,6-dioxopiperidin-3-yl)-5-(3-((3-(5-((1r,3r)-3-((5-(5-methyl-5H-pyrido[4,3-b]indol-7-yl)pyridin-2-yl)oxy)cyclobutoxy)pyridin-2-yl)prop-2-yn-1-yl)oxy)azetidin-1-yl)isoindoline-1,3-dione]
- Degradation activity* (highest amount of degradation observed at any dosage; tau protein remaining): C (>80% tau protein remaining after 72 hours of incubation with the test compound)

Compound: Cn1c2ccncc2c2ccc(-c3ccc(CCCOCCOCCOCCOCCOc4ccc5c(c4)C(=O)N(C4CCC(=O)NC4=O)C5=O)nc3)cc21 (centres unmarked) [Compound 74, 2-(2,6-dioxopiperidin-3-yl)-5-((15-(5-(5-methyl-5H-pyrido[4,3-b]indol-7-yl)pyridin-2-yl)-3,6,9,12-tetraoxapentadecyl)oxy)isoindoline-1,3-dione]
- Degradation activity* (highest amount of degradation observed at any dosage; tau protein remaining): A (≤50% tau protein remaining after 72 hours of incubation with the test compound)

Compound: Cn1c2ccncc2c2ccc(-c3ccc(O[C@H]4C[C@H](OCCOCCOCC5CN(c6ccc7c(c6)C(=O)N(C6CCC(=O)NC6=O)C7=O)C5)C4)nc3)cc21 (some centres unmarked) [Compound 192, 2-(2,6-dioxopiperidin-3-yl)-5-(3-((2-(2-((1r,3r)-3-((5-(5-methyl-5H-pyrido[4,3-b]indol-7-yl)pyridin-2-yl)oxy)cyclobutoxy)ethoxy)ethoxy)methyl)azetidin-1-yl)isoindoline-1,3-dione]
- Degradation activity (tau protein remaining; highest amount of degradation observed at any dosage): C (>80% tau protein remaining after 72 hours of incubation with the test compound)

Compound: Cc1ncsc1-c1ccc([C@H](C)NC(=O)[C@@H]2C[C@@H](O)CN2C(=O)[C@@H](NC(=O)COCCOCCOCCOCCOc2ccc3nc(-c4ccc(N(C)C)cc4)ccc3c2)C(C)(C)C)cc1 [Compound 32, (2S,4R)-1-((S)-2-tert-butyl-17-(2-(4-(dimethylamino)phenyl)quinolin-6-yloxy)-4-oxo-6,9,12,15-tetraoxa-3-azaheptadecane)-4-hydroxy-N—((S)-1-(4-(4-methylthiazol-5-yl)phenyl)ethyl)pyrrolidine-2-carboxamide]
- Activity* (highest amount of degradation observed at any dosage, as tau protein remaining): C (>80% tau protein remaining after 72 hours of incubation with the test compound)

Compound: Cn1c2ccncc2c2ccc(-c3ccc(O[C@H]4C[C@H](OCC5(COCCCOC6CN(c7ccc8c(c7)C(=O)N(C7CCC(=O)NC7=O)C8=O)C6)COC5)C4)nc3)cc21 (some centres unmarked) [Compound 169, 2-(2,6-dioxopiperidin-3-yl)-5-(3-(3-((3-(((1r,3r)-3-((5-(5-methyl-5H-pyrido[4,3-b]indol-7-yl)pyridin-2-yl)oxy)cyclobutoxy)methyl)oxetan-3-yl)methoxy)propoxy)azetidin-1-yl)isoindoline-1,3-dione]
- Degradation activity* (highest amount of degradation observed at any dosage; tau protein remaining): A (≤50% tau protein remaining after 72 hours of incubation with the test compound)
